Measurements from patent US20240415828A1, “TLR7 AGONIST AND COMBINATIONS FOR CANCER TREATMENT” (BIONTECH SE, priority 2021, published 2024).

Experiments:
[1] = system: CT26 colon carcinoma cells; assay: CT26 tumor model, BNT411 alone and with oxaliplatin (Example 4); assay type: in vivo, mouse
Procedure: FIG. 5. Anti-tumoral efficacy of BNT411 alone and in combination with oxaliplatin in a tumor mouse model. Mice (n=12 or 13 per group) subcutaneously inoculated with 2.5×10^5 CT26 colon carcinoma cells were used as tumor mouse model. Oxaliplatin was administered intraperitoneally (i.p.) (5 mg/kg, four times with 4 to 5 days between injections). BNT411 was administered i.v. at a dose level of 3 mg/kg eight times with 2 to 5 days interval between injections and at least 2 days after oxaliplatin therapy. Anti-tumor efficacy was evaluated by group mean tumor volumes in test versus control groups (vehicle only) on days 33 and 42 (at least 50% of test and control animals alive). IFNα levels in plasma were analyzed 1 h after first BNT411 administration and gp70+ T-cell populations in blood were analyzed on days 34 and 41. (A) Dosing schedule. (B) Graph showing the tumor volumes vs. days after inoculation. Group mean tumor volumes (±SEM (standard error of the mean)) for all live animals are shown. Treatment groups included nine to ten mice. Additionally, tumor volumes of animals that were euthanized due to tumor load were carried forward for as long as they were larger than the group median tumor volume (last observation carried forward (LOCF) values). Curves were discontinued for groups with less than 50% animals alive. (C) Graph showing IFNα serum level 60 min after first injection for the 4 groups (control (vehicle); BNT411 alone; oxaliplatin alone; BNT411 and oxaliplatin). IFNα levels in control and test groups are shown by vertical bars (±SEM), Statistical significance between groups is indicated by horizontal lines. P-value summary: ****=p≤0.0001; ***=p≤0.001; **=p≤0.01, […].
Serum levels of IFNα were measured by sandwich ELISA (Pbl Assay Systems) according to manufacturer's instructions.
BALB/c mice were inoculated s.c. with 2.5×10^5−5×10^5 CT26-WT into the flank, respectively. Once tumors reached palpable sizes, mice were randomly divided into treatment and control groups. Tumor volume was measured unblinded with a caliper and calculated using the formula (a×b^2)/2 (a being the largest and b being the smallest diameter of the tumor). Tumor growth was documented as mean tumor size with standard error disregarding single distant outliers. Treatment was initiated after 7-10 d with tumors having reached an average volume of about 10 mm^3. […]
Oxaliplatin was administered intraperitoneally (i.p.) (5 mg/kg, four times with 4 to 5 days between injections). […] Anti-tumor efficacy was evaluated by group mean tumor volumes in test versus control groups (vehicle only) on study days 33 and 42, (at least 50% of test and control animals alive). IFNα levels in plasma were analyzed 1 h after first BNT411 administration and gp70+ T-cell populations in blood on study days 34 and 41.

[2] = system: CT26 colon carcinoma cells; assay: CT26 tumor model, BNT411 alone and with anti-PD-L1 antibody (Example 5); assay type: in vivo; conditions: no adverse clinical effects, higher toxicities, or body weight loss
Procedure: FIG. 6. Anti-tumoral efficacy of BNT411 alone and in combination with an anti-PD-L1 antibody in a tumor mouse model. Mice (n=10 per group) subcutaneously inoculated with 5×10^5 CT26 colon carcinoma cells were used as tumor mouse model. The anti-PD-L1 antibody anti-PD-L1-mIgG1e3 was administered intraperitoneally (i.p.) at a dose level of 200 μg per animal. BNT411 was administered i.v. at a dose level of 3 mg/kg. All treatments were delivered once every five days for a total of six doses. Body weight changes and tumor growth were assessed on study day 21 when there were at least nine animals alive in each group. (A) Dosing schedule. (B) Graph showing the tumor volumes vs. study day. Mean tumor volume±SEM (mm^3) is depicted for each treatment. Last observations were carried forward until day 35 when only the animal who cleared the tumor was left. […]
BALB/c mice were inoculated s.c. with 2.5×10^5−5×10^5 CT26-WT into the flank, respectively. […] Tumor volume was measured unblinded with a caliper and calculated using the formula (a×b^2)/2 (a being the largest and b being the smallest diameter of the tumor). […]
Four groups of 10 animals were inoculated with 1×10^6 CT26 cells per animal into the dorsal right flank (day 0). […] Body weight changes and tumor growth were assessed on study day 21 when there were at least nine animals alive in each group. […]

Structure (SMILES): COCCc1nc2c(N)nc3ccccc3c2n1CCCCN(C(C)=O)C1CCOCC1 [BNT411]
- anti-tumor efficacy, T/C value ([1]; BNT411 3 mg/kg i.v. eight times, oxaliplatin 5 mg/kg i.p. four times, group mean tumor volumes test vs control): 65.8%
- effect on tumor growth (conclusion) ([1]; mouse, in vivo): anti-tumor activity
- IFNα levels, BNT411 monotherapy group vs combination of BNT411 and oxaliplatin ([1]; two-way ANOVA): statistically significantly higher
- tolerability throughout treatment [2]: well tolerated
